Measured values: patent US20040097377A1, “Pesticidal spinosyn derivates” (priority 2003, published 2004)

Columns and labels:
[1] = test system: Tobacco Budworm (Heliothis virescens); experiment: Tobacco budworm feeding bioassay (egg and larval stage, 96-well agar diet plate, percent mortality); assay type: in vivo; settings: average of three replicates
Method: (§1) Tobacco Budworm (Heliothis virescens) and Beet Armyworm (Spodoptera littoralis) Feeding Bioassay
(§2) To compare insecticidal activities of the test compounds against egg and larval stage Heliothis virescens or Spodoptera littoralis, 50 ul of a 1:1 acetone:water solution was added to each sample and then solublized for one-hour using an orbital shaker. Each of the resulting sample solutions (50, 120, or 250 ppm) was then applied to a well in a 96-well microtiter plate, each well containing an artificial agar-based lepidoptera diet (modified Shorey diet, Southland Products, Lake Village, Ariz.). Each sample was run in triplicate. Plates were allowed to dry for about 4 hours, covered and held for infestation the next day. Each well of the treated plate was infested with 3-5 eggs (0-2 days old) of either H. virescens or S. littoralis. Plates were then covered with cotton batting and sealed with microplate lid. The treated plates were held inverted in an incubator (80+% rh) for six to seven days. Following the incubation period, the plates were graded for percent mortality using a binocular microscope. Data for each sample was reported as the average percent mortality of the three replicates.

[2] = test system: Beet Armyworm (Spodoptera littoralis); experiment: Beet armyworm feeding bioassay (egg and larval stage, 96-well agar diet plate, percent mortality); assay type: in vivo; settings: average of three replicates
Method: as §1, §2

Molecule	Tobacco Budworm Diet (6 day) Mortality (%) ([1]; Rate 50 ppm)	Beet Armyworm Diet (6 day) Mortality (%) ([2]; Rate 50 ppm)	Tobacco Budworm Diet (6 day) Mortality (%) ([1]; Rate 120 ppm)	Beet Armyworm Diet (6 day) Mortality (%) ([2]; Rate 120 ppm)
CCC=CC1CCCC(OC2CCC(N(C)C)C(C)O2)C(C)C(=O)C2=CC3C(C=CC4CC(OC5OC(C)C(O)C(OC)C5OC)CC43)C2CC(=O)O1 (stereo not shown) [Compound 32, for-(4′-O-desmethyl-rham)-I]	100	100	–	–
CCC=CC1CCCC(OC2CCC(N(C)C)C(C)O2)C(C)C(=O)C2=CC3C(C=CC4CC(OC5OC(C)C(OC)C(OC)C5OC)CC43)C2CC(=O)O1 (stereo not shown) [Compound 1, for-rham-I, reference compound]	100	100	–	–
CC=CC1CCCC(OC2CCC(N(C)C)C(C)O2)C(C)C(=O)C2=CC3C(C=CC4CC(OC5OC(C)C(O)C(O)C5OC)CC43)C2CC(=O)O1 (stereo not shown) [Compound 43, 24-desmethyl-for-(3′,4′-di-O-desmethyl-rham)-I]	33	80	–	–
CCC=CC1CCCC(OC2CCC(N(C)C)C(C)O2)C(C)C(=O)C2=CC3C(C=CC4CC(OC5OC(C)C(O)C(O)C5OC)CC43)C2CC(=O)O1 (stereo not shown) [Compound 37]	100	100	–	–
CCC=CC1CCCC(OC2CCC(NC)C(C)O2)C(C)C(=O)C2=CC3C(C=CC4CC(OC5OC(C)C(OC)C(O)C5OC)CC43)C2CC(=O)O1 (stereo not shown) [Compound 137, (4″-N-desmethyl-for)-(3′-O-desmethyl-rham)-I]	–	–	100	100
CCC=CC1CCCC(OC2CCC(N(C)C)C(C)O2)C(C)C(=O)C2=CC3C(C=CC4C(O)C(OC5OC(C)C(O)C(OC)C5OC)CC43)C2CC(=O)O1 (stereo not shown) [Compound 34, for-(4′-O-desmethyl-rham)-III]	100	100	–	–
CCC=CC1CCCC(OC2CCC(N(C)C)C(C)O2)C(C)C(=O)C2=CC3C(C=CC4CC(OC5OC(C)C(O)C(O)C5O)CC43)C2CC(=O)O1 (stereo not shown) [Compound 33, for-(2′,3′,4′-tri-O-desmethyl-rham)-I]	100	100	–	–
CCC=CC1CCCC(OC2CCC(N(C)C)C(C)O2)C(C)C(=O)C2=CC3C(C=CC4CC(OC5OC(C)C(OC)C(OC)C5O)CC43)C2CC(=O)O1 (stereo not shown) [Compound 5, for-(2′-O-desmethylrham)-I]	100	100	–	–
CCC=CC1CCCC(OC2CCC(N(C)C)C(C)O2)C(C)C(=O)C2=CC3C(C=CC4C(O)C(OC5OC(C)C(OC)C(O)C5OC)CC43)C2CC(=O)O1 (stereo not shown) [Compound 41, for-(3′-O-desmethyl-rham) III]	100	100	–	–
CCC=CC1CCCC(OC2CCC(N(C)C)C(C)O2)C(C)C(=O)C2=CC3C(C=CC4CC(OC5OC(C)C(OC)C(O)C5OC)CC43)C2CC(=O)O1 (stereo not shown) [Compound 6, for-(3′-O-desmethylrham)-I]	100	100	–	–
for-(3′,4′-di-O-desmethyl-rham)-IV [Compound 163]	–	–	100	100
for-(3′,4′-di-O-desmethyl-rham)-II [Compound 44]	100	100	–	–
CCC=CC1CCCC(OC2CCC(N(C)C)C(C)O2)C(C)C(=O)C2=CC3C(C=CC4C(O)C(OC5OC(C)C(O)C(O)C5OC)CC43)C2CC(=O)O1 (stereo not shown) [Compound 40, for-(3′,4′-di-O-desmethyl-rham) III]	100	93	–	–
COC1C(C)OC(OC2CC3C=CC4C5CC(=O)OC(C=CC(C)O)CCCC(OC6CCC(N(C)C)C(C)O6)C(C)C(=O)C5=CC4C3C2)C(OC)C1O (stereo not shown) [Compound 141, 24-hydroxy-for-(3′-O-desmethyl-rham)-I]	–	–	100	67
